Assay results: patent US12685313B2, “Agricultural composition comprising kasugamycin” (UPL Corporation Limited, priority 2021, dated 2026)

How the values were obtained:
Alternaria alternata = assay: In vitro control of Alternaria alternata on PDA medium; format: cell-based; conditions: Alternaria alternata from potato, dose 1 L/400 L water, 28-30° C., dark, 7 days
Procedure: A strain of Alternaria alternata isolated from potato was cultivated in a solid potato dextrose agar (PDA) medium. The efficacy of the mixture of kasugamycin and laminarin in a 1:1 ratio, and each component individually was tested.
The in vitro assessment of the products effectiveness was carried out as per the treatments discussed in Table 4. Accordingly, the components in each treatment were dissolved in PDA culture medium at the dose indicated above. The mixture was homogenized and poured into sterile petri dishes. Explants of 5 mm diameter of Alternaria alternata were placed on the petri dishes with PDA. The dishes were incubated inverted in dark conditions at a temperature of 28-30° C. The evaluation of the inhibition of the fungus was carried out 7 days later.
The present inventors have calculated the Colby value of the synergistic combination as discussed in Example 4 above.

Fusarium oxysporum = assay: In vitro control of Fusarium oxysporum on PDA medium; format: cell-based; conditions: Fusarium oxysporum from potato, dose 1 L/400 L water, 28-30° C., dark, 7 days
Procedure: A strain of Fusarium oxysporum isolated from potato was cultivated in a solid potato dextrose agar (PDA) medium. The efficacy of the mixture of kasugamycin and laminarin in a 1:1 ratio, and each component individually was tested.
The in vitro assessment of the products effectiveness was carried out as per the treatments discussed in Table 2. Accordingly, the components in each treatment were dissolved in the PDA culture medium at the dose indicated above. The mixture was homogenized and poured into sterile petri dishes. Explants of 5 mm diameter of the fungus strain Fusarium oxysporum were placed on the petri dishes with PDA. The dishes were incubated inverted, in dark conditions at a temperature of 28-30° C. The evaluation of the inhibition of the fungus was carried out 7 days later.
This effectiveness of all treatments as measured by percent reduction in the Fusarium oxysporum growth, was also evaluated according to Colby's equation as below. […]
If the actual/observed anti-phytopathogenic efficacy of the kasugamycin and laminarin combination against Fusarium oxysporum exceeds the calculated value, then the activity of the combination is super additive, i.e. a synergistic effect exists. In this case, the efficacy which was actually observed must be greater than the value for the expected efficacy (E) calculated from the abovementioned formula.

**Q.** How did the “% Observed control” value (Alternaria alternata) turn out when `C[C@H]1O[C@H](O[C@H]2[C@H](O)[C@@H](O)[C@@H](O)[C@H](O)[C@@H]2O)[C@@H](N)C[C@@H]1NC(=N)C(=O)O` [Kasugamycin] was run?
**A.** 54%

**Q.** What about the “% Observed control” value (Fusarium oxysporum) of the same molecule?
**A.** 48%

**Q.** How did the “% Observed control” value (Alternaria alternata) turn out when Laminarin was run?
**A.** 30%

**Q.** And the “% Observed control” value (Fusarium oxysporum)?
**A.** 11%
